Source: article PMC6690571 (ACS Omega, 2019)

Experiments:
mGlu5 [1] = target: T1, mGlu5 (Homo sapiens, UniProt P41594); experiment: standard mGlu5 calcium mobilization functional assay, PAM and NAM modes; assay type: cell-based
mGlu5 [2] = target: T1, mGlu5; experiment: standard mGlu5 calcium mobilization functional assay, human mGlu5; assay type: cell-based; conditions: for EC50: EC50 (PAM)
mGlu5 [3] = target: T1, mGlu5; conditions: Figure 1 ref 14; cited from earlier work
[4] = human mGlu5 assay, synthetic material

T1 sequence (P41594 21-1212): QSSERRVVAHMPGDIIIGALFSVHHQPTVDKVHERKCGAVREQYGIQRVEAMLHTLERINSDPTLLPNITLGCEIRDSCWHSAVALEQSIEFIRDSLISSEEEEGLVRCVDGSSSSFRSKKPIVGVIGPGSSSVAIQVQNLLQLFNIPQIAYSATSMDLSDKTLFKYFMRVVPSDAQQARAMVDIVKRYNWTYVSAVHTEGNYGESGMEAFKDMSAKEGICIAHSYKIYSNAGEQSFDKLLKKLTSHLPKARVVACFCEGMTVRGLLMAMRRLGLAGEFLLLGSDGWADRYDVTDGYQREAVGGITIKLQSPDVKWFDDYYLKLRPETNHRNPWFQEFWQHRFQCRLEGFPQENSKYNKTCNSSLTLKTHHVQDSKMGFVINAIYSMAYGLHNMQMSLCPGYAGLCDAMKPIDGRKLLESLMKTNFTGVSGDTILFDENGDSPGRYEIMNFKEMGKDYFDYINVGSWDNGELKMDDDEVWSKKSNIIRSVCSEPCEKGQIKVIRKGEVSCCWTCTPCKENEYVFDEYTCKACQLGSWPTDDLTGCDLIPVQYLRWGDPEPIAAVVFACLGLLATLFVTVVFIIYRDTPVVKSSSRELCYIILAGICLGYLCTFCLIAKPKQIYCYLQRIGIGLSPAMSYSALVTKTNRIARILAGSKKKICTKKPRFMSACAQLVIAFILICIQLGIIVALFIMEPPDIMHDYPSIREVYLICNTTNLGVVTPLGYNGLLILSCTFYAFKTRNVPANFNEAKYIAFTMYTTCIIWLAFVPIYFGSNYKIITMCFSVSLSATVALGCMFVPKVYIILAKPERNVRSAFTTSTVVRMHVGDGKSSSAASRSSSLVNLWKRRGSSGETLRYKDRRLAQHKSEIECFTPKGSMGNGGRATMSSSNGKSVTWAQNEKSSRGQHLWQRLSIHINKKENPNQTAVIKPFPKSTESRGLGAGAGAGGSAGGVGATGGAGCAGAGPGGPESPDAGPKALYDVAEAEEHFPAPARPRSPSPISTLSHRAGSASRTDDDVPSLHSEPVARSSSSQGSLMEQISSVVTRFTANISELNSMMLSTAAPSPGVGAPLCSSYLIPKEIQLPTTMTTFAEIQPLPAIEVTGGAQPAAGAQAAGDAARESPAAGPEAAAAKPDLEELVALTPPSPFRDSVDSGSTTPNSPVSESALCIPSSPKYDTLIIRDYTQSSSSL

SMILES: O=C(C(=O)c1cccc(F)c1)c1ccc(C(=O)NC2CCC2)nc1 [M5, N-Cyclobutyl-5-(2-(3-fluorophenyl)-2-oxoacetyl)picolinamide]
- activity in NAM mode (mGlu5 [1]): inactive
- activity in PAM mode (mGlu5 [1]): inactive

SMILES: NC(=O)c1ccc(C#Cc2cccc(F)c2)cn1 [M4, 5-((3-Fluorophenyl)ethynyl)picolinamide]
- EC50 (mGlu5 [2]; kit-produced M4, human mGlu5 assay, material from the BMO production kit): 510 nM
- EC50 (mGlu5 [2]; synthetic-derived M4, human mGlu5 assay, synthetic material): 315 nM
- % Glu Max, kit-produced M4 (mGlu5 [2]; human mGlu5 assay, material from the BMO production kit): 75 % Glu Max
- % Glu Max, synthetic-derived M4 (mGlu5 [2]; [4]): 77%
- agonism (no agonism noted up to), synthetic-derived M4 (mGlu5 [2]; [4]): > 30 µM

SMILES: O=C(O)c1ccc(C#Cc2cccc(F)c2)cn1 [compound 3, 5-((3-Fluorophenyl)ethynyl)picolinic Acid]
- activity of metabolite M2, the product of amide hydrolysis (mGlu5 [3]): inactive

SMILES: O=C(c1ccc(C(=O)NC2CCC2)nc1)c1cccc(F)c1 [M6, N-Cyclobutyl-5-(3-fluorobenzoyl)picolinamide]
- activity in NAM mode (mGlu5 [1]): inactive
- activity in PAM mode (mGlu5 [1]): inactive
